From US4716230A, “Certain bis(di-2 or 4-pyridyl-phosphino) alkanes #10 having anti-tumor properties” (Smithkline Beckman Corporation, priority 1986, dated 1987)
“And” between values parts separate entries of the source, which are not always exact repeats. Equal entries are not always repeated.

How the values were obtained:
P388 leukemia = assay: in vivo ip P388 lymphocytic leukemia mouse model (increase in lifespan); set-up: species or system mouse (B6D2F1); settings: mice bearing ip P388 leukemia; ip Days 1-5; figures separated by slashes are from separate experiments; active if ≥25 percent ILS
From the text: P388 lymphocytic leukemia is currently the most widely used animal tumor model for screening for antitumor agents and for detailed evaluation of active compounds. This tumor system is widely accepted as an antitumor agent screening tool because it is sensitive to virtually all of the clinically active antineoplastic agents; quantitative and reproducible; amenable for large-scale screening; and predictive for activity in other animal tumor models.
(§1) 10^6 P388 leukemia cells are inoculated ip in B6D2F1 mice. Twenty-four hours later, if the tumor inoculum proves to be free of bacterial contamination (as determined by 24 hours incubation in thioglycollate broth), animals are randomized into groups of 6 and housed in shoebox cages. The compound to be evaluated is dissolved in a minimal volume of either N,N-dimethylacetamide (DMA) or 95% ethanol (depending upon solubility). An equal volume of saline is added; if the drug comes out of solution an equal volume of polyethoxylated castor oil is added and then saline qs to a concentration such that the desired dose is delivered in 0.5 ml. The final concentration of DMA, ethanol and polyethoxylated castor oil is […]. Dilutions for lower doses are made with saline so there is a decreasing proportion of organic solvents in the vehicle with decreasing dosage. These vehicles provide soluble formulations (or suspensions). Formulations are prepared immediately prior to injection. The compound is administered ip on Days 1 through 5 (i.e. treatment is initiated 24 hrs after tumor inoculation). Each experiment includes three groups of 6 animals as untreated controls and animals treated with a positive control, cisplatin, at two dose levels. Animals are weighed as a group on Days 1, 5 and 9 and average weight change (Δwt.) is used as a reflection of toxicity. Each experiment also includes an inoculum titration--groups of 8 mice inoculated ip with 10^5 to […] P388 leukemia cells. The titration is used to calculate cell kill achieved by treatment with drugs. Animals are monitored daily for mortality and experiments are terminated after 45 days. The endpoint is median survival time (MST) and increase in lifespan (ILS) which is the percentage of increase in MST relative to untreated controls. Untreated controls inoculated ip with 10^6 P388 leukemia cells generally survive for a median of 9 or 11 days. A drug is considered active if it produces ≥25 percent ILS.
^(b) maximum increase in lifespan produced in mice bearing ip P388
leukemia (figures separated by slashes indicate data generated in seperat

[1] = maximally tolerated dose in mice, ip qD × 5 regimen; settings: mouse, in vivo, B6D2F female mice
Procedure: as §1
^(a) maximally tolerated dose for B6D2F female mice on an ip qD

[2] = Struck et al., J. Med. Chem., 9, 414-416 (1966); cited from earlier work

SMILES	ILS (max) (maximum increase in lifespan) (P388 leukemia)	MTD [1] [mg/kg]	cytotoxic activity [2]
c1cc(P(CCP(c2ccncc2)c2ccncc2)c2ccncc2)ccn1 [Compound 2, 1,2-Bis(di-4-pyridylphosphino)ethane]	35% and 37%	32	
c1csc(P(CCP(c2cccs2)c2cccs2)c2cccs2)c1 [Compound 3, 1,2-Bis(di-2-thienylphosphino)ethane]	60% and 55%	16	
c1ccc(P(CCP(c2ccccn2)c2ccccn2)c2ccccn2)nc1 [Compound 1, 1,2-Bis(di-2-pyridylphosphino)ethane]	30% and 20%	16	
c1ccc(P(CCP(c2ccccc2)c2ccccc2)c2ccccc2)cc1 [1,2-bis(diphenylphosphino)ethane]			cytotoxic activity
c1coc(P(CCP(c2ccco2)c2ccco2)c2ccco2)c1 [Compound 4, 1,2-Bis(di-2-furylphosphino)ethane]	60% and 30% and 50%	64	
